Reference: PubChem BioAssay (NCI)
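The compound was tested at five concentrations on cells cultured in 96-well plates, with a 48-hour exposure period. TGI denotes the concentration required for complete inhibition of growth.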

What was measured:
Assay in all cases: NCI anticancer screen, dose series, 48 h
786-0 renal = test system: 786-0 renal
A498 renal = test system: A498 renal
A549 NSCLC = test system: A549 NSCLC
ACHN renal = test system: ACHN renal
BT-549 breast = test system: BT-549 breast
CAKI-1 renal = test system: CAKI-1 renal
CCRF-CEM leukemia = test system: CCRF-CEM leukemia
COLO 205 colon = test system: COLO 205 colon
DU-145 prostate = test system: DU-145 prostate
HCC-2998 colon = test system: HCC-2998 colon
HCT-116 colon = test system: HCT-116 colon
HCT-15 colon = test system: HCT-15 colon
HL-60(TB) leukemia = test system: HL-60(TB) leukemia
HOP-62 NSCLC = test system: HOP-62 NSCLC
HS 578T breast = test system: HS 578T breast
HT29 colon = test system: HT29 colon
IGROV1 ovarian = test system: IGROV1 ovarian
K-562 leukemia = test system: K-562 leukemia
KM12 colon = test system: KM12 colon
LOX IMVI melanoma = test system: LOX IMVI melanoma
M14 melanoma = test system: M14 melanoma
MALME-3M melanoma = test system: MALME-3M melanoma
MCF7 breast = test system: MCF7 breast
MDA-MB-231 breast = test system: MDA-MB-231 breast
MDA-MB-435 = test system: MDA-MB-435
MDA-N = test system: MDA-N
MOLT-4 leukemia = test system: MOLT-4 leukemia
NCI-H226 lung = test system: NCI-H226 lung
NCI-H23 lung = test system: NCI-H23 lung
NCI-H460 lung = test system: NCI-H460 lung
NCI-H522 lung = test system: NCI-H522 lung
NCI/ADR-RES ovarian = test system: NCI/ADR-RES ovarian
OVCAR-3 ovarian = test system: OVCAR-3 ovarian
OVCAR-5 ovarian = test system: OVCAR-5 ovarian
OVCAR-8 ovarian = test system: OVCAR-8 ovarian
PC-3 prostate = test system: PC-3 prostate
RPMI-8226 leukemia = test system: RPMI-8226 leukemia
RXF 393 renal = test system: RXF 393 renal
SF-268 CNS = test system: SF-268 CNS
SF-295 CNS = test system: SF-295 CNS
SF-539 CNS = test system: SF-539 CNS
SK-MEL-2 melanoma = test system: SK-MEL-2 melanoma
SK-MEL-28 melanoma = test system: SK-MEL-28 melanoma
SK-MEL-5 melanoma = test system: SK-MEL-5 melanoma
SK-OV-3 ovarian = test system: SK-OV-3 ovarian
SN12C renal = test system: SN12C renal
SNB-19 CNS = test system: SNB-19 CNS
SNB-75 CNS = test system: SNB-75 CNS
SR leukemia = test system: SR leukemia
SW-620 colon = test system: SW-620 colon
T-47D breast = test system: T-47D breast
TK-10 renal = test system: TK-10 renal
U251 CNS = test system: U251 CNS
UACC-257 melanoma = test system: UACC-257 melanoma
UACC-62 melanoma = test system: UACC-62 melanoma
UO-31 renal = test system: UO-31 renal
EKVX NSCLC = test system: EKVX NSCLC
HOP-92 NSCLC = test system: HOP-92 NSCLC
OVCAR-4 ovarian = test system: OVCAR-4 ovarian

Measured: TGI

O=C(N/N=C1\CCc2ccccc21)N/N=C1\CCc2ccccc21
29.4 µM: MDA-MB-231 breast
30 µM: MDA-N
26.3 µM: M14 melanoma
not listed: EKVX NSCLC | HOP-92 NSCLC | OVCAR-4 ovarian
> 100 µM: all other assays above

Cc1ccc(NC(=O)c2cc(S(=O)(=O)N3CCNNC3=O)c(S)cc2Cl)cc1
80.6 µM: RXF 393 renal
87.6 µM: BT-549 breast
not listed: A498 renal | HOP-62 NSCLC | HT29 colon | NCI-H23 lung | SK-OV-3 ovarian
> 100 µM: all other assays above
